Experimental data: the NIST ThermoML archive (doi:10.1021/je900502s)
± gives the expanded uncertainty stated by the source.

What was measured:
[1] = for surface tension liquid-gas: Pendant drop shape; for mass density: 101.33 kPa, Liquid, Pycnometric method
[2] = 293.15 K; 101 kPa; Liquid mixture 1; pendant drop method

Row | mass density ([1]; 293.15 K) [kg/m3] | Compound | surface tension liquid-gas ([1]; 293.15 K) [mN/m] | also measured
1 | – | CCCCCCCC[N+](C)(CCCCCCCC)CCCCCCCC.O=S(=O)([N-]S(=O)(=O)C(F)(F)F)C(F)(F)F | 22.77 ± 0.43 | –
2 | – | CCCCCCN(CCCCCC)C(N(C)C)=[N+](CCCCCC)CCCCCC.N#C[N-]C#N | 21.35 ± 0.49 | –
3 | – | CCCCCCN(CCCCCC)C(N(C)C)=[N+](CCCCCC)CCCCCC.[Cl-] | 28.95 ± 0.57 | mass density ([1]; 298.15 K): 943 ± 50 kg/m3
4 | – | CCCCCCCCn1cc[n+](C)c1.O=S(=O)([N-]S(=O)(=O)C(F)(F)F)C(F)(F)F + O | – | interfacial tension [2]: 22.81 ± 0.41 mN/m
5 | – | CCCC[n+]1ccn(C)c1.O=S(=O)([N-]S(=O)(=O)C(F)(F)F)C(F)(F)F + O | – | interfacial tension [2]: 15.15 ± 0.55 mN/m
6 | – | CCCCn1cc[n+](C)c1C.O=S(=O)([N-]S(=O)(=O)C(F)(F)F)C(F)(F)F + O | – | interfacial tension [2]: 17.04 ± 1.3 mN/m
7 | 1121 ± 7 | OCCO [1,2-ethanediol] | – | –
8 | 1306 ± 7 | COCCn1cc[n+](C)c1.F[B-](F)(F)F [1-(2-methoxyethyl)-3-methyl-imidazolium tetrafluoroborate] | 35.31 ± 0.64 | –
9 | 1066 ± 10 | CCCCn1cc[n+](C)c1.N#CN=C=[N-] [1-butyl-3-methylimidazolium dicyanamide] | 38.14 ± 0.68 | –
10 | 1212 ± 5 | CCCCn1cc[n+](C)c1.F[B-](F)(F)F [1-butyl-3-methylimidazolium tetrafluoroborate] | 44.28 ± 0.79 | mass density ([1]; 298.15 K): 1217 ± 12 kg/m3
11 | 1242 ± 4 | CCOS(=O)(=O)[O-].CCn1cc[n+](C)c1 [1-ethyl-3-methylimidazolium ethyl sulfate] | 46.13 ± 0.91 | –
12 | 971 ± 6 | CCCCCCCC[n+]1ccn(C)c1.[Cl-] [1-methyl-3-octylimidazolium chloride] | 26.2 ± 0.57 | –
13 | 1110 ± 5 | CCCCCCCC[n+]1ccn(C)c1.F[B-](F)(F)F [1-methyl-3-octylimidazolium tetrafluoroborate] | 33.22 ± 0.6 | mass density ([1]; 298.15 K): 1115 ± 46 kg/m3
14 | – | CCCCCCCC[N+](C)(CCCCCCCC)CCCCCCCC.N#C[N-]C#N [N,N,N-trioctyl-N-methylammonium dicyanamide] | 28.8 ± 0.53 | mass density ([1]; 298.15 K): 890 ± 3 kg/m3
15 | – | CCCCCCCC[N+](C)(CCCCCCCC)CCCCCCCC.[Cl-] [N-methyl-N,N-dioctyl-1-octanaminium chloride] + O | – | interfacial tension [2]: 3.66 ± 0.36 mN/m
16 | 1327 ± 9 | ClCCl [dichloromethane] | – | –
17 | 831 ± 3 | CCCCCCCCO [octan-1-ol] | – | –
18 | – | CCCCCCCCO [octan-1-ol] + O | – | interfacial tension [2]: 8.3 ± 0.5 mN/m
19 | – | CCCCCCCCCCCCCC[P+](CCCCCC)(CCCCCC)CCCCCC.N#C[N-]C#N [tetradecyl(trihexyl)phosphonium dicyanamide] | 30.99 ± 0.61 | –
20 | – | CCCCCCCCCCCCCC[P+](CCCCCC)(CCCCCC)CCCCCC.Cc1ccc(S(=O)(=O)[O-])cc1 [tetradecyl(trihexyl)phosphonium tosylate] | 23.2 ± 0.53 | mass density ([1]; 298.15 K): 1003 ± 22 kg/m3
21 | – | CCCCCCCCCCCCCC[P+](CCCCCC)(CCCCCC)CCCCCC.[Cl-] [trihexyl(tetradecyl)phosphonium chloride] + O | – | interfacial tension [2]: 6.11 ± 0.17 mN/m
22 | 1013 ± 5 | O [water] | – | –

Row | Compound | mass density ([1]; 293.15 K) [kg/m3] | surface tension liquid-gas ([1]; 293.15 K) [mN/m] | also measured
23 | CCCCCCCCn1cc[n+](C)c1.O=S(=O)([N-]S(=O)(=O)C(F)(F)F)C(F)(F)F | 1340 ± 4 | 30.55 ± 0.56 | –
24 | CCCC[n+]1ccn(C)c1.O=S(=O)([N-]S(=O)(=O)C(F)(F)F)C(F)(F)F | 1452 ± 13 | – | surface tension liquid-gas ([1]; 298.15 K): 38.37 ± 0.69 mN/m
25 | CCCCn1cc[n+](C)c1C.O=S(=O)([N-]S(=O)(=O)C(F)(F)F)C(F)(F)F | 1425 ± 24 | 26.66 ± 0.49 | –
26 | CCCCCCCCCCn1cc[n+](C)c1.N#C[N-]C#N [1-decyl-3-methylimidazolium dicyanamide] | 1003 ± 5 | 31.15 ± 0.57 | –
27 | CCCCCCCCCCn1cc[n+](C)c1.F[B-](F)(F)F [1-decyl-3-methylimidazolium tetrafluoroborate] | 1076 ± 3 | 23.65 ± 0.48 | –
28 | Cn1cc[n+](CCO)c1.N#C[N-]C#N [3-(2-hydroxyethyl)-1-methyl-1H-imidazol-3-ium dicyanoazanide] | 1179 ± 3 | 45.75 ± 0.81 | –
29 | CCCCCCCCn1cc[n+](C)c1.N#C[N-]C#N [3-methyl-1-octylimidazolium dicyanamide] | 1013 ± 3 | 36.86 ± 0.66 | –
30 | CCCCCCCC[N+](C)(CCCCCCCC)CCCCCCCC.[Cl-] [N-methyl-N,N-dioctyl-1-octanaminium chloride] | 891 ± 6 | 26.44 ± 0.49 | mass density ([1]; 298.15 K): 896 ± 18 kg/m3
31 | CCCCCCCCCCCCCC[P+](CCCCCC)(CCCCCC)CCCCCC.[Cl-] [trihexyl(tetradecyl)phosphonium chloride] | 918 ± 6 | 30.7 ± 0.56 | –
